Experiments:
Format in all cases: in vivo
ECHCG = test: Herbicidal post-emergence action; conditions: 80 g/ha, visual assessment after about three weeks, 100% = plants have died
Method: (§1) 2. Herbicidal Post-Emergence Action
(§2) • Seeds of monocotylidonous and dicotylidonous weed and crop plants are placed in sandy loam in wood fibre pots, covered with soil and cultivated in a greenhouse under good growth conditions. Two to three weeks after sowing, the test plants are treated at the one-leaf stage. The test compounds, formulated as wettable powders (WP), are then with a water application rate of 600 l/ha (converted), with 0.2% of wetting agent added, sprayed onto the green parts of the plants in different amounts. After the test plants have been kept in the greenhouse under optimum growth conditions for about three weeks, the effect of the preparations is assessed visually in comparison to untreated controls (herbicidal effect in percent: 100% effect=the plants have died, 0% effect=like control plants). Post-Emergence, 80 g/ha

SETVI = test: Herbicidal post-emergence action; conditions: visual assessment after about three weeks, 100% = plants have died; for herbicidal effect in percent, SETVI: 80 g/ha; for pest or weed control at 80 g/ha: 504 h, read-out: herbicidal effect in percent, SETVI
Method: as §1, §2

AVEFA = test: Herbicidal post-emergence action; conditions: 80 g/ha, visual assessment after about three weeks, 100% = plants have died
Method: as §1, §2

ALOMY = test: Herbicidal post-emergence action; conditions: 80 g/ha, visual assessment after about three weeks, 100% = plants have died
Method: as §1, §2

LOLMU = test: Herbicidal post-emergence action; conditions: 80 g/ha, visual assessment after about three weeks, 100% = plants have died
Method: as §1, §2

[1] = test system: monocotylidonous and dicotylidonous weed and crop plants; test: Herbicidal pre-emergence action; conditions: 320 g/ha, visual assessment after three weeks, 100% = plants have died
Source text: 1. Herbicidal Pre-Emergence Action
• Seeds of monocotylidonous and dicotylidonous weed and crop plants are placed in sandy loam in wood fibre pots and covered with soil. The test compounds, formulated in the form of wettable powders (WP), are then, as an aqueous suspension with a water application rate of 600 l/ha (converted), with 0.2% of wetting agent added, applied to the surface of the covering soil in different amounts. • After the treatment, the pots are placed in a greenhouse and kept under good growth conditions for the test plants. The visual assessment of the emergence damage on the test plants is carried out after a trial period of three weeks by comparison with the untreated controls (herbicidal effect in percent: 100% effect=the plants have died, 0% effect=like control plants).

Row | Structure (SMILES) | herbicidal effect in percent, ECHCG (ECHCG) [%] | herbicidal effect in percent, SETVI (SETVI) [%] | herbicidal effect in percent, AVEFA (AVEFA) [%] | herbicidal effect in percent, ALOMY (ALOMY) [%] | herbicidal effect in percent, LOLMU (LOLMU) [%] | herbicidal effect in percent, ALOMY ([1]; ALOMY = Alopecurus myosuroides) [%] | herbicidal effect in percent, AVEFA ([1]; AVEFA = Avena fatua) [%] | herbicidal effect in percent, ECHCG ([1]; ECHCG = Echinochloa crus-galli) [%] | herbicidal effect in percent, LOLMU ([1]; LOLMU = Lolium multiflorum) [%] | herbicidal effect in percent, SETVI ([1]; SETVI = Setaria viridis) [%] | pest or weed control at 80 g/ha (SETVI) [%]
1 | CCc1cc(C)cc(CC)c1C1=C(OC(=O)C(C)C)C2CC(COC(C)=O)CC2C1=O (mixture of isomers) [I-b-23] | 100 | 90 | 90 | 80 | 90 | – | – | – | – | – | –
2 | CCc1cc(C)cc(CC)c1C1C(=O)C2CC(C=O)CC2C1OC(=O)C(C)(C)C (centres unmarked) [I-b-2, 2-(2,6-diethyl-4-methylphenyl)-5-formyl-3-oxooctahydropentalen-1-yl 2,2-dimethylpropanoate] | 100 | – | – | – | – | 80 | 80 | 100 | 100 | 90 | 100
3 | CCOC(=O)CC1CC2C(=O)C(c3c(CC)cc(C)cc3CC)=C(OC(=O)OCC)C2C1 (mixture of isomers) [I-c-16] | 80 | 80 | – | – | – | – | – | – | – | – | –
4 | CCOC(=O)OC1=C(c2c(CC)cc(C)cc2CC)C(=O)C2CC(CCC(C)=NOC)CC12 (mixture of isomers) [I-c-24] | 100 | 100 | 80 | 90 | 100 | – | – | – | – | – | –
5 | CCc1cc(C)cc(CC)c1C1=C(OCc2ccccc2)C2CC(CBr)CC2C1=O (mixture of isomers) [I-a-61] | 90 | 90 | – | – | 90 | – | – | – | – | – | –
6 | CCOC(=O)CC1CC2C(=O)C(c3c(CC)cc(C)cc3CC)=C(OCC)C2C1 (mixture of isomers) [I-a-81] | 80 | 90 | – | 80 | 80 | – | – | – | – | – | –
7 | CCc1cc(C)cc(CC)c1C1C(=O)C2CC(CCC(C)=NOC)CC2C1=O (racemic) [I-a-42, 2-(2,6-diethyl-4-methylphenyl)-5-[3-methoxyiminobutyl]-tetrahydropentalene-1,3-dione] | 100 | – | 100 | 90 | 100 | – | – | – | – | – | 100
8 | CCOC(=O)OC1=C(c2c(CC)cc(C)cc2CC)C(=O)C2CC(C(C)=O)CC12 (mixture of isomers) [I-c-17] | 90 | 80 | 90 | 90 | 100 | – | – | – | – | – | –
9 | Cc1cc(C)c(C2C(=O)C3CC(C4OCCCO4)CC3C2=O)c(C)c1 (mixture of isomers) [I-a-32] | 80 | 90 | – | – | 90 | – | – | – | – | – | –
10 | CCOC(=O)OC1=C(c2c(CC)cc(C)cc2CC)C(=O)C2CC(COC(C)=O)CC12 (mixture of isomers) [I-c-15] | 90 | 80 | – | – | 90 | – | – | – | – | – | –
11 | CCc1cc(C)cc(CC)c1C1C(=O)C2CC(C(C)=NOC)CC2C1=O (mixture of isomers) [I-a-34] | 100 | 90 | – | 100 | 100 | – | – | – | – | – | –
12 | CCOC(=O)OC1=C(c2c(CC)cc(C)cc2CC)C(=O)C2CC(CCC#N)CC12 (mixture of isomers) [I-c-21] | 100 | 90 | 100 | – | 100 | – | – | – | – | – | –
